{
  "source": "ChEMBL document CHEMBL5625213",
  "about": "“Novel acridine-based LSD1 inhibitors enhance immune response in gastric cancer” (Eur J Med Chem, 2023)",
  "key": {"[1]": {"target": "T1, Lysine-specific histone demethylase 1A (Homo sapiens, UniProt O60341)", "experiment": "Inhibition of recombinant LSD1 ( unknown origin) expressed in Escherichia coli BL21 (DE3) cells using H3K4me2 peptide as substrate incubated for 30 mins in presence of FAD by fluorescence microplate reader analysis"}, "[2]": {"target": "T1, Lysine-specific histone demethylase 1A", "experiment": "Binding affinity to LSD1 in human BGC-823 cells assessed as thermal stability at 2 uM measured at 40 to 55 degreeC by cellular thermal shift assay", "format": "cell-based"}, "[3]": {"target": "T1, Lysine-specific histone demethylase 1A", "experiment": "Inhibition of LSD1 in human BGC-823 cells assessed as induction of H3K4me1 accumulation at 0.5 to 2 uM incubated for 5 days by Western blot analysis", "format": "cell-based", "conditions": "dose 0.5-2 µM, time 5.0 day"}, "[4]": {"target": "T1, Lysine-specific histone demethylase 1A", "experiment": "Inhibition of LSD1 in human BGC-823 cells assessed as induction of H3K4me2 accumulation at 0.5 to 2 uM incubated for 5 days by Western blot analysis", "format": "cell-based", "conditions": "dose 0.5-2 µM, time 5.0 day"}, "BGC-823 [5]": {"tested_on": "BGC-823", "experiment": "Inhibition of stemness in human BGC-823 cells assessed as inhibition of OCT4 expression at 0.5 to 2 uM by Western blot analysis", "format": "functional, cell-based", "conditions": "dose 0.5-2 µM"}, "BGC-823 [6]": {"tested_on": "BGC-823", "experiment": "Inhibition of stemness in human BGC-823 cells assessed as inhibition of SOX2 expression at 0.5 to 2 uM by Western blot analysis", "format": "functional, cell-based", "conditions": "dose 0.5-2 µM"}, "BGC-823 [7]": {"tested_on": "BGC-823", "experiment": "Inhibition of stemness in human BGC-823 cells assessed as inhibition of Nanog expression at 0.5 to 2 uM by Western blot analysis", "format": "functional, cell-based", "conditions": "dose 0.5-2 µM"}, "BGC-823 [8]": {"tested_on": "BGC-823", "experiment": "Inhibition of stemness in human BGC-823 cells assessed as inhibition of CD44 expression at 0.5 to 2 uM by Western blot analysis", "format": "functional, cell-based", "conditions": "dose 0.5-2 µM"}, "BGC-823 [9]": {"tested_on": "BGC-823", "experiment": "Inhibition of cell migration in human BGC-823 cells at 0.5 to 2 uM measured upto 48 hrs by fluorescence microscope based wound healing assay", "format": "functional", "conditions": "dose 0.5-2 µM"}, "BGC-823 [10]": {"tested_on": "BGC-823", "experiment": "Downregulation of PD-L1 level in human BGC-823 cells incubated for 5 days by Western blot analysis", "format": "functional, cell-based", "conditions": "dose 0.5-2 µM, time 5.0 day"}, "MFC [11]": {"tested_on": "MFC", "experiment": "Downregulation of PD-L1 level in MFC cells incubated for 5 days by Western blot analysis", "format": "functional, cell-based", "conditions": "Mus musculus, dose 0.5-2 µM, time 5.0 day"}, "BGC-823 [12]": {"tested_on": "BGC-823", "experiment": "Downregulation of PD-L1 mRNA level in human BGC-823 cells at 0.5 to 2 uM incubated for 5 days by qRT-PCR analysis", "format": "functional, cell-based", "conditions": "dose 0.5-2 µM, time 5.0 day"}, "MFC [13]": {"tested_on": "MFC", "experiment": "Downregulation of PD-L1 mRNA level in MFC cells at 0.5 to 2 uM incubated for 5 days by qRT-PCR analysis", "format": "functional, cell-based", "conditions": "Mus musculus, dose 0.5-2 µM, time 5.0 day"}, "[14]": {"target": "Programmed cell death protein 1/Programmed cell death 1 ligand 1 (Homo sapiens) (UniProt Q15116+Q9NZQ7)", "experiment": "Inhibition of Fc-tagged recombinant human PD-1 binding to PD-L1 in human BGC-823 cells incubated for 5 days by DAPI staining based confocal microscopic analysis", "format": "cell-based", "conditions": "dose 0.5-2 µM, time 5.0 day"}, "BGC-823 [15]": {"tested_on": "BGC-823", "experiment": "Cytotoxicity against human BGC-823 cells co-cultured with T cells assessed as reduction in cell viability pretreated for 5 days followed by co-incubation with T cells for 4 days by CCK8 assay", "format": "functional, cell-based", "conditions": "dose 0.5-2 µM, time 5.0 day"}, "BGC-823 [16]": {"tested_on": "BGC-823", "experiment": "Cytotoxicity against human BGC-823 cells co-cultured with T cells assessed as increase in 4-1BB mRNA level at 1 uM by qRT-PCR analysis", "format": "functional, cell-based"}, "BGC-823 [17]": {"tested_on": "BGC-823", "experiment": "Cytotoxicity against human BGC-823 cells co-cultured with T cells assessed as increase in CCR7 mRNA level at 1 uM by qRT-PCR analysis", "format": "functional, cell-based"}, "BGC-823 [18]": {"tested_on": "BGC-823", "experiment": "Cytotoxicity against human BGC-823 cells co-cultured with T cells assessed as increase in CCR10 mRNA level at 1 uM by qRT-PCR analysis", "format": "functional, cell-based"}, "BGC-823 [19]": {"tested_on": "BGC-823", "experiment": "Cytotoxicity against human BGC-823 cells co-cultured with T cells assessed as increase in IFN-gamma mRNA level at 1 uM by qRT-PCR analysis", "format": "functional, cell-based"}, "BGC-823 [20]": {"tested_on": "BGC-823", "experiment": "Cytotoxicity against human BGC-823 cells co-cultured with T cells assessed as increase in IL-2 mRNA level at 1 uM by qRT-PCR analysis", "format": "functional, cell-based"}, "BGC-823 [21]": {"tested_on": "BGC-823", "experiment": "Cytotoxicity against human BGC-823 cells co-cultured with T cells assessed as increase in TNF-alpha mRNA level at 1 uM by qRT-PCR analysis", "format": "functional, cell-based"}, "[22]": {"experiment": "Toxicity in 615 mouse implanted with MFC cells assessed as change in body weight upto 50 mg/kg, IG measured after 14 days", "format": "organism-based", "conditions": "in vivo, po, 336 h, time 14 day"}, "[23]": {"experiment": "Toxicity in 615 mouse implanted with MFC cells assessed as liver damage upto 50 mg/kg, IG measured after 14 days", "format": "organism-based", "conditions": "in vivo, po, 336 h, time 14 day"}, "[24]": {"experiment": "Toxicity in 615 mouse implanted with MFC cells assessed as kidney damage upto 50 mg/kg, IG measured after 14 days", "format": "organism-based", "conditions": "in vivo, po, 336 h, time 14 day"}, "MFC [25]": {"tested_on": "MFC", "experiment": "Antitumor activity against MFC cells implanted in 615 mouse assessed as inhibition of tumor growth administered intragastrically for 14 days", "format": "functional, cell-based", "conditions": "dose 15-50 mg/kg, route ig, time 14.0 day"}, "MFC [26]": {"tested_on": "MFC", "experiment": "Antitumor activity against MFC cells implanted in 615 mouse assessed as reduction in tumor size at 15 to 50 mg/kg, IG administered for 14 days", "format": "functional, organism-based", "conditions": "dose 15-50 mg/kg, time 14.0 day"}, "MFC [27]": {"tested_on": "MFC", "experiment": "Antiproliferative activity against MFC cells assessed as inhibition of cell proliferation at 2 uM incubated for 5 days by CCK8 assay", "format": "functional", "conditions": "Mus musculus, 120 h, time 5 day"}, "MFC [28]": {"tested_on": "MFC", "experiment": "Antitumor activity against MFC cells implanted in 615 mouse assessed as decrease in PD-L1 expression in tumor administered intragastrically for 14 days by Western blot analysis", "format": "functional, cell-based", "conditions": "dose 15-50 mg/kg, route ig, time 14.0 day"}, "MFC [29]": {"tested_on": "MFC", "experiment": "Antitumor activity against MFC cells implanted in 615 mouse assessed as increase in IFN-gamma mRNA level at 15 to 50 mg/kg, IG administered for 14 days by qRT-PCR analysis", "format": "functional, organism-based", "conditions": "dose 15-50 mg/kg, time 14.0 day"}, "MFC [30]": {"tested_on": "MFC", "experiment": "Antitumor activity against MFC cells implanted in 615 mouse assessed as increase in TNF-alpha mRNA level at 15 to 50 mg/kg, IG administered for 14 days by qRT-PCR analysis", "format": "functional, organism-based", "conditions": "dose 15-50 mg/kg, time 14.0 day"}, "MFC [31]": {"tested_on": "MFC", "experiment": "Antitumor activity against MFC cells implanted in 615 mouse assessed as increase in IL-2 mRNA level at 15 to 50 mg/kg, IG administered for 14 days by qRT-PCR analysis", "format": "functional, organism-based", "conditions": "dose 15-50 mg/kg, time 14.0 day"}},
  "note": "Calls of active or inactive are those of the source. The rule behind the calls is not given here.",
  "data": [
    {"smiles": "Cc1ccc2c(Nc3ccc(N(C)C)cc3)c3ccc([N+](=O)[O-])cc3nc2c1C", "values": [
      {"measurement": "IC50", "setting": "[1]", "value": "> 10", "unit": "µM"}
    ]},
    {"smiles": "Cc1ccc2nc3c(C)c(C)ccc3c(Nc3ccc(N(C)C)cc3)c2c1", "values": [
      {"measurement": "IC50", "setting": "[1]", "value": 0.013, "unit": "µM"},
      {"measurement": "Activity", "setting": "[2]", "value": "Active"},
      {"measurement": "inhibition", "setting": "[3]", "value": "Active"},
      {"measurement": "inhibition", "setting": "[4]", "value": "Active"},
      {"measurement": "inhibition", "setting": "BGC-823 [5]", "value": "Active"},
      {"measurement": "inhibition", "setting": "BGC-823 [6]", "value": "Active"},
      {"measurement": "inhibition", "setting": "BGC-823 [7]", "value": "Active"},
      {"measurement": "inhibition", "setting": "BGC-823 [8]", "value": "Active"},
      {"measurement": "inhibition", "setting": "BGC-823 [9]", "value": "Active"},
      {"measurement": "Activity", "setting": "BGC-823 [10]", "value": "Dose-Dependent Effect"},
      {"measurement": "Activity", "setting": "MFC [11]", "value": "Dose-Dependent Effect"},
      {"measurement": "Activity", "setting": "BGC-823 [12]", "value": "Active"},
      {"measurement": "Activity", "setting": "MFC [13]", "value": "Active"},
      {"measurement": "inhibition", "setting": "[14]", "value": "Dose-Dependent Effect"},
      {"measurement": "Activity", "setting": "BGC-823 [15]", "value": "Dose-Dependent Effect"},
      {"measurement": "Activity", "setting": "BGC-823 [16]", "value": "Active"},
      {"measurement": "Activity", "setting": "BGC-823 [17]", "value": "Active"},
      {"measurement": "Activity", "setting": "BGC-823 [18]", "value": "Active"},
      {"measurement": "Activity", "setting": "BGC-823 [19]", "value": "Active"},
      {"measurement": "Activity", "setting": "BGC-823 [20]", "value": "Active"},
      {"measurement": "Activity", "setting": "BGC-823 [21]", "value": "Active"},
      {"measurement": "Activity", "setting": "[22]", "value": "Non-Toxic"},
      {"measurement": "Activity", "setting": "[23]", "value": "Non-Toxic"},
      {"measurement": "Activity", "setting": "[24]", "value": "Non-Toxic"},
      {"measurement": "Activity", "setting": "MFC [25]", "value": "Dose-Dependent Effect"},
      {"measurement": "Activity", "setting": "MFC [26]", "value": "Active"},
      {"measurement": "inhibition at 2 µM", "setting": "MFC [27]", "value": "> 10", "unit": "%"},
      {"measurement": "Activity", "setting": "MFC [28]", "value": "Dose-Dependent Effect"},
      {"measurement": "Activity", "setting": "MFC [29]", "value": "Active"},
      {"measurement": "Activity", "setting": "MFC [30]", "value": "Active"},
      {"measurement": "Activity", "setting": "MFC [31]", "value": "Active"}
    ]},
    {"smiles": "CN(C)c1ccc(Nc2c3ccccc3nc3c(N(C)C)cccc23)cc1", "values": [
      {"measurement": "IC50", "setting": "[1]", "value": "> 10", "unit": "µM"}
    ]},
    {"smiles": "CN(C)C(=O)c1ccc(Nc2c3ccccc3nc3ccccc23)cc1", "values": [
      {"measurement": "IC50", "setting": "[1]", "value": "> 10", "unit": "µM"}
    ]},
    {"smiles": "CN(C)Cc1ccc(Nc2c3ccccc3nc3ccccc23)cc1", "values": [
      {"measurement": "IC50", "setting": "[1]", "value": "> 10", "unit": "µM"}
    ]}
  ]
}
